ChEMBL document CHEMBL4507286 (2021)

Assays:
[1] = biological target: Tyrosine-protein kinase receptor TYRO3 (Homo sapiens) (UniProt Q06418)
[2] = biological target: Megakaryocyte-associated tyrosine-protein kinase (Homo sapiens) (UniProt P42679)
[3] = biological target: 5-hydroxytryptamine receptor 2A (Homo sapiens) (UniProt P28223); details: Compound concentration 10.0 uM
[4] = test system: Hepatocyte growth factor receptor (Homo sapiens), P08581 [M1250T]
[5] = biological target: Platelet-derived growth factor receptor alpha (Homo sapiens) (UniProt P16234)
[6] = test system: Tyrosine-protein kinase ABL1 (Homo sapiens), P00519 [F317L]
[7] = biological target: Serine/threonine-protein kinase 32A (Homo sapiens) (UniProt Q8WU08)
[8] = biological target: Wee1-like protein kinase 2 (Homo sapiens) (UniProt P0C1S8)
[9] = biological target: Serine/threonine-protein kinase PAK 1 (Homo sapiens) (UniProt Q13153)
[10] = biological target: Cyclin-dependent kinase 7 (Homo sapiens, UniProt P50613)
[11] = biological target: Eukaryotic translation initiation factor 2-alpha kinase 1 (Homo sapiens) (UniProt Q9BQI3)
[12] = biological target: Casein kinase I isoform alpha (Homo sapiens) (UniProt P48729)
[13] = biological target: Serine/threonine-protein kinase Nek7 (Homo sapiens) (UniProt Q8TDX7)
Chain of Serine/threonine-protein kinase Nek7 (Homo sapiens) (Q8TDX7 whole entry, looked up): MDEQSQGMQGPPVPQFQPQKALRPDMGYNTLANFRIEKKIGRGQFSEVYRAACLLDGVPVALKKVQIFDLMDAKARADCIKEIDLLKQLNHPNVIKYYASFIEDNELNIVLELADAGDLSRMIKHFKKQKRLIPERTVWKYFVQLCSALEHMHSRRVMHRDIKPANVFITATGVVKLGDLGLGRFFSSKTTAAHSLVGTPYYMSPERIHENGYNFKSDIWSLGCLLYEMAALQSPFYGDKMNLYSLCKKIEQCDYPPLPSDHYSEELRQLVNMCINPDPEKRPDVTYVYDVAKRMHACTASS

[14] = biological target: Mitogen-activated protein kinase 7 (Homo sapiens) (UniProt Q13164)
[15] = biological target: Cyclin-dependent kinase 5 (Homo sapiens, UniProt Q00535)
[16] = test system: Mast/stem cell growth factor receptor Kit (Homo sapiens), P10721 [V559D]
[17] = test system: ALK tyrosine kinase receptor (Homo sapiens), Q9UM73 [C1156Y]
[18] = biological target: Testis-specific serine/threonine-protein kinase 1 (Homo sapiens) (UniProt Q9BXA7)
[19] = biological target: Focal adhesion kinase 1 (Homo sapiens) (UniProt Q05397)
[20] = test system: eIF-2-alpha kinase GCN2 (Homo sapiens), Q9P2K8 [S808G]
Chain of eIF-2-alpha kinase GCN2 (Homo sapiens), Q9P2K8 [S808G] (Q9P2K8 whole entry S808G): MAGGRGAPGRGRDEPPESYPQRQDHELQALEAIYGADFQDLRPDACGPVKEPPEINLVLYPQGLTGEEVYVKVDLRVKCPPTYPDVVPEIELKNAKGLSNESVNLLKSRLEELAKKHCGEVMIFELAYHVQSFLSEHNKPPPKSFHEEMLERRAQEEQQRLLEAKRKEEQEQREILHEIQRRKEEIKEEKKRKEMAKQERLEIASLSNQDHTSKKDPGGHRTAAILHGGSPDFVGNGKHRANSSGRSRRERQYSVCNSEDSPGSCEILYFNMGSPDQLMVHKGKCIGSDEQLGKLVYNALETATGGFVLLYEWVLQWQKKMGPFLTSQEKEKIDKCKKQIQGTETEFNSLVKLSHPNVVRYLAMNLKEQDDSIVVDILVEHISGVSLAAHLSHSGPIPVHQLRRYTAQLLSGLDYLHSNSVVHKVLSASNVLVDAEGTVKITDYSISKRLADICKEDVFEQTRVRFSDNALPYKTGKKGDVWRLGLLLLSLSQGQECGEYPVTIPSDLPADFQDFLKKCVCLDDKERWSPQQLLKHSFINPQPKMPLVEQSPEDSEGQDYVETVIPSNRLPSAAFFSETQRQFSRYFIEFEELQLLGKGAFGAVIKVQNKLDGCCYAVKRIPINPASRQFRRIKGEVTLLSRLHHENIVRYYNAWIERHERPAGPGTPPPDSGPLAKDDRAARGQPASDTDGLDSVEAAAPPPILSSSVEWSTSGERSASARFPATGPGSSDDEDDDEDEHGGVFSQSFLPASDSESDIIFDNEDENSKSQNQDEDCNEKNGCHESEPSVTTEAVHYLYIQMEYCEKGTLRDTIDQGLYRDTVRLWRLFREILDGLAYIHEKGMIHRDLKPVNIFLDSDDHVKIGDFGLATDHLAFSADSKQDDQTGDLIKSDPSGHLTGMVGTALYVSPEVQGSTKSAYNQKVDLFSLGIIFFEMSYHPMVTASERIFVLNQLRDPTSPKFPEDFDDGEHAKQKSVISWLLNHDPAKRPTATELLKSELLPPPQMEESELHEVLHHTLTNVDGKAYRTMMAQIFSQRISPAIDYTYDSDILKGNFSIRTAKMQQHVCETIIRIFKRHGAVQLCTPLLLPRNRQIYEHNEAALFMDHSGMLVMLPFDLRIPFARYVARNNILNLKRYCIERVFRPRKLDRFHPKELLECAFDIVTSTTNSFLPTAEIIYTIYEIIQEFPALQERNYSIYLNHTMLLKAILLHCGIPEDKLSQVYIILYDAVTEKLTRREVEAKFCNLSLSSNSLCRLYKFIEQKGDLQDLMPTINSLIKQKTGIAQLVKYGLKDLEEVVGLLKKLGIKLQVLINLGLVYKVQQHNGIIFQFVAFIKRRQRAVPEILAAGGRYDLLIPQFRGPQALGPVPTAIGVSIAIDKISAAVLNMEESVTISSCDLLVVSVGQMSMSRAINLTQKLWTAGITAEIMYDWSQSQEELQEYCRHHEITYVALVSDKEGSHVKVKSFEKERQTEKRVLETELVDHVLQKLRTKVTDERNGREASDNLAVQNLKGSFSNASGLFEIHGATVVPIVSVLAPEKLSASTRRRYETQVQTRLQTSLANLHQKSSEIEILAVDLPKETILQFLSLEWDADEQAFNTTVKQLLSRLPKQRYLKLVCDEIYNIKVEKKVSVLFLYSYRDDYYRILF

[21] = biological target: D(1B) dopamine receptor (Homo sapiens) (UniProt P21918); details: Compound concentration 10.0 uM
[22] = biological target: RAC-beta serine/threonine-protein kinase (Homo sapiens) (UniProt P31751)
[23] = biological target: Dual specificity tyrosine-phosphorylation-regulated kinase 1A (Homo sapiens) (UniProt Q13627)
[24] = biological target: Mast/stem cell growth factor receptor Kit (Homo sapiens) (UniProt P10721)
Chain of Mast/stem cell growth factor receptor Kit (Homo sapiens) (P10721 whole entry): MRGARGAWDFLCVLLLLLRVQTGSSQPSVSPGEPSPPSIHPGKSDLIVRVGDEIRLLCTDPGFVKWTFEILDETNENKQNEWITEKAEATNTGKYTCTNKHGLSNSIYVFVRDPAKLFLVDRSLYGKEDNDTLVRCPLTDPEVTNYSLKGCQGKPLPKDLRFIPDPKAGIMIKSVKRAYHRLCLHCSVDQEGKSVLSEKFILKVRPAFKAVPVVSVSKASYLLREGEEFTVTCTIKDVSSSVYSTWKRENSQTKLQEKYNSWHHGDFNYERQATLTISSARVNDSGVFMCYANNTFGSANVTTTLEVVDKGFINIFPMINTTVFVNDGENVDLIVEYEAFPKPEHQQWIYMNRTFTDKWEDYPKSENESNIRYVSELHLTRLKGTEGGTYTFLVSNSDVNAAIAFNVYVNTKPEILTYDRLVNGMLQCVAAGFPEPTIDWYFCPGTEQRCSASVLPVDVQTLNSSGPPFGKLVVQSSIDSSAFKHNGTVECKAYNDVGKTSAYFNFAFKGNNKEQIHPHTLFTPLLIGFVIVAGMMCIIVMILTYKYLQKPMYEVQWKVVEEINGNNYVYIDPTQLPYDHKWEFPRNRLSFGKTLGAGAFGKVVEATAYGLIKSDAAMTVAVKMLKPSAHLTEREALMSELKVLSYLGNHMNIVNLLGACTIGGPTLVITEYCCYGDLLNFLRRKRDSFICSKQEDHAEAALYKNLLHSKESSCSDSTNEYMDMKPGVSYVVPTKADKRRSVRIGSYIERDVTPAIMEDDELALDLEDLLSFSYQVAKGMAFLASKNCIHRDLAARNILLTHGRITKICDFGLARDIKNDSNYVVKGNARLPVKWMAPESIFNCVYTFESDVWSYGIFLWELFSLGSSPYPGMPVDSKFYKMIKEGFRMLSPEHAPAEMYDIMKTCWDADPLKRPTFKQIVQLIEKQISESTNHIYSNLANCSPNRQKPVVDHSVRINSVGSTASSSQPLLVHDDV

[25] = test system: Proto-oncogene tyrosine-protein kinase receptor Ret (Homo sapiens), P07949 [M918T]
[26] = biological target: Ribosomal protein S6 kinase alpha-5 (Homo sapiens) (UniProt O75582)
[27] = biological target: Serine/threonine-protein kinase 33 (Homo sapiens) (UniProt Q9BYT3)
[28] = biological target: Non-receptor tyrosine-protein kinase TNK1 (Homo sapiens) (UniProt Q13470)
Chain of Non-receptor tyrosine-protein kinase TNK1 (Homo sapiens) (Q13470 whole entry): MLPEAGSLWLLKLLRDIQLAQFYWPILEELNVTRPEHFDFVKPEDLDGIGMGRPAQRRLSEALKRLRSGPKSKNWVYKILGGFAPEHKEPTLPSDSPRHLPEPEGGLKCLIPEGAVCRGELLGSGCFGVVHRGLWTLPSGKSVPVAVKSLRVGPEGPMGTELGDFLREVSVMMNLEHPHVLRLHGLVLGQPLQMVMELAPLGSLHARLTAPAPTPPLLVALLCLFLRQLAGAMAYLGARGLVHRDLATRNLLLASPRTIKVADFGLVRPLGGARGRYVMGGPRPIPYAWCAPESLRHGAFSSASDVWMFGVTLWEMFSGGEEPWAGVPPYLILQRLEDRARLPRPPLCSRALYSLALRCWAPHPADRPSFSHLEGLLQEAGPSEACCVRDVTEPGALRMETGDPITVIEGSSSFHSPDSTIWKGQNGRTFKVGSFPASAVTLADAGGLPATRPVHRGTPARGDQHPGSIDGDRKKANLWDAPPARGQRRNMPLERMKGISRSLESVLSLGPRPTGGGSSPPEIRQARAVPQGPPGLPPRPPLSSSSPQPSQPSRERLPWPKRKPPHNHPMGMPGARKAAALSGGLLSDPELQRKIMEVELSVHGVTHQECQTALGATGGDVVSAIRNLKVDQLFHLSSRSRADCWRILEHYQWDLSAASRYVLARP

[29] = biological target: Ribosomal protein S6 kinase alpha-2 (Homo sapiens) (UniProt Q15349)
[30] = test system: Mast/stem cell growth factor receptor Kit (Homo sapiens), P10721 [D816V]
[31] = biological target: Serine/threonine-protein kinase RIO2 (Homo sapiens) (UniProt Q9BVS4)
[32] = biological target: Serine/threonine-protein kinase MRCK alpha (Homo sapiens) (UniProt Q5VT25)
[33] = biological target: Alpha-1A adrenergic receptor (Homo sapiens) (UniProt P35348); details: Compound concentration 10.0 uM
[34] = biological target: Dual specificity mitogen-activated protein kinase kinase 4 (Homo sapiens) (UniProt P45985)
[35] = biological target: Cyclin-dependent kinase 13 (Homo sapiens) (UniProt Q14004)
[36] = biological target: Insulin receptor (Homo sapiens) (UniProt P06213)
[37] = biological target: Calcium/calmodulin-dependent protein kinase type 1B (Homo sapiens) (UniProt Q6P2M8)
[38] = biological target: Aurora kinase B (Homo sapiens) (UniProt Q96GD4)
[39] = biological target: Serine/threonine-protein kinase PAK 5 (Homo sapiens) (UniProt Q9P286)
[40] = biological target: Maternal embryonic leucine zipper kinase (Homo sapiens) (UniProt Q14680)
[41] = test system: Phosphatidylinositol 4,5-bisphosphate 3-kinase catalytic subunit alpha isoform (Homo sapiens), P42336 [H1047L]
[42] = biological target: Serine/threonine-protein kinase TAO1 (Homo sapiens) (UniProt Q7L7X3)
[43] = biological target: Serine/threonine-protein kinase 35 (Homo sapiens) (UniProt Q8TDR2)
Chain of Serine/threonine-protein kinase 35 (Homo sapiens) (Q8TDR2 whole entry): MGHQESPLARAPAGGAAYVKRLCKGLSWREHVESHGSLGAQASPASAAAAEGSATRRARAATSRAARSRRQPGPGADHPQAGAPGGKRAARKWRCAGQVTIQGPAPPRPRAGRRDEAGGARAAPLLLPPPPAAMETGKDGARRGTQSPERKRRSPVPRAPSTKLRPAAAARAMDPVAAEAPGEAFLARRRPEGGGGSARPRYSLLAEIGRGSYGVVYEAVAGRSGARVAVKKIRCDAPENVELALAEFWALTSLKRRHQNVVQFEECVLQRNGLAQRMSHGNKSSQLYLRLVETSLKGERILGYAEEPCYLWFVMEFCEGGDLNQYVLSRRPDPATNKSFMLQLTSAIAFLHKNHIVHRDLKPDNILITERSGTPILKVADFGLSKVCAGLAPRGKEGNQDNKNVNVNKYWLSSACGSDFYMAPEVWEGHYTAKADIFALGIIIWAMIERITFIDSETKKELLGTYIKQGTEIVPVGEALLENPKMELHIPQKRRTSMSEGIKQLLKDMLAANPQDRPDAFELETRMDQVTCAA

[44] = biological target: Casein kinase II subunit alpha' (Homo sapiens) (UniProt P19784)
Chain of Casein kinase II subunit alpha' (Homo sapiens) (P19784 whole entry, looked up): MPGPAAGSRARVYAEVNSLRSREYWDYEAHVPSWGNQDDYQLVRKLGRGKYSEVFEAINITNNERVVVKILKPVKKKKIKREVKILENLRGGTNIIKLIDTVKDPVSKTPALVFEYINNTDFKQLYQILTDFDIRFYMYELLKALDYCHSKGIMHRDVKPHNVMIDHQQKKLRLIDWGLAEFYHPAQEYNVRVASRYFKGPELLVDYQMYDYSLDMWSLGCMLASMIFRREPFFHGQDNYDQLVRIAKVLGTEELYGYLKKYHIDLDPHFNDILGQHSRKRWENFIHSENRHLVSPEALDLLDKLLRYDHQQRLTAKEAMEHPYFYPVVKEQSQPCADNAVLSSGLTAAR

[45] = biological target: Histamine H3 receptor (Homo sapiens) (UniProt Q9Y5N1); details: Compound concentration 10.0 uM
[46] = Compound concentration 1000.0 nM
[47] = Compound concentration 100.0 nM

Chain of 5-hydroxytryptamine receptor 2A (Homo sapiens) (P28223 whole entry): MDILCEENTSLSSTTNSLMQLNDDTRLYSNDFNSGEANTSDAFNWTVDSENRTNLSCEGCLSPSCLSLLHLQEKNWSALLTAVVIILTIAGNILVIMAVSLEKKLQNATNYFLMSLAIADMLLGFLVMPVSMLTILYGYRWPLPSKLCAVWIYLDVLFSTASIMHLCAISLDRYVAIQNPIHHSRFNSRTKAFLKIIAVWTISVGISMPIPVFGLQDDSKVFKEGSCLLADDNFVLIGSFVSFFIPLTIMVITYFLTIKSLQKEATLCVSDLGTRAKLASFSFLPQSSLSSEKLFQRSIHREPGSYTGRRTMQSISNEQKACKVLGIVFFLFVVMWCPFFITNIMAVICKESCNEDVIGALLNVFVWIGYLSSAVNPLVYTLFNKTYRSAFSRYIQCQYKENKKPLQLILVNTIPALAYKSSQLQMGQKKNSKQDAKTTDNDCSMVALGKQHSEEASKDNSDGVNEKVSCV

Question: For `C[C@H](NC(=O)Nc1cc2[nH]ncc2c(CO)n1)c1ccccn1` [ERKi-NC], which residual activity [1, 46] is on record?
Answer: 59.2%

Question: What about the residual activity [2, 46] of the same compound?
Answer: 100%

Question: What about the inhibition [3] of the same compound?
Answer: 7.64%

Question: What about the residual activity [4, 46] of the same compound?
Answer: 100%

Question: What about the residual activity [5, 46] of the same compound?
Answer: 100%

Question: And the residual activity [6, 46]?
Answer: 100%

Question: And the residual activity [7, 46]?
Answer: 100%

Question: And the residual activity [8, 46]?
Answer: 100%

Question: And the residual activity [9, 46]?
Answer: 100%

Question: And the residual activity [10, 46]?
Answer: 100%

Question: What about the residual activity [11, 46] of the same compound?
Answer: 100%

Question: What about the residual activity [12, 46] of the same compound?
Answer: 56.5%

Question: And the residual activity [13, 46]?
Answer: 98%

Question: And the residual activity [14, 46]?
Answer: 87.9%

Question: What about the residual activity [15, 46] of the same compound?
Answer: 100%

Question: What about the residual activity [16, 46] of the same compound?
Answer: 100%

Question: What about the residual activity [17, 46] of the same compound?
Answer: 100%

Question: And the residual activity [18, 46]?
Answer: 99%

Question: What about the residual activity [19, 46] of the same compound?
Answer: 100%

Question: What about the residual activity [20, 46] of the same compound?
Answer: 77.2%

Question: And the inhibition [21]?
Answer: 7.55%

Question: What about the residual activity [22, 46] of the same compound?
Answer: 100%

Question: What about the residual activity [23, 46] of the same compound?
Answer: 100%

Question: And the residual activity [24, 46]?
Answer: 96.9%

Question: What about the residual activity [25, 46] of the same compound?
Answer: 100%

Question: What about the residual activity [26, 46] of the same compound?
Answer: 100%

Question: What about the residual activity [27, 46] of the same compound?
Answer: 100%

Question: What about the residual activity [28, 46] of the same compound?
Answer: 87.8%

Question: And the residual activity [29, 46]?
Answer: 95.3%

Question: What about the residual activity [30, 46] of the same compound?
Answer: 100%

Question: What about the residual activity [31, 46] of the same compound?
Answer: 100%

Question: What about the residual activity [32, 46] of the same compound?
Answer: 93.5%

Question: And the inhibition [33]?
Answer: -8.5%

Question: And the residual activity [34, 46]?
Answer: 88.9%

Question: And the residual activity [35, 46]?
Answer: 79%

Question: What about the residual activity [36, 46] of the same compound?
Answer: 100%

Question: And the residual activity [37, 46]?
Answer: 98.5%

Question: What about the residual activity [38, 46] of the same compound?
Answer: 79.8%

Question: What about the residual activity [39, 46] of the same compound?
Answer: 100%

Question: What about the residual activity [40, 46] of the same compound?
Answer: 100%

Question: And the residual activity [41, 46]?
Answer: 100%

Question: And the residual activity [42, 46]?
Answer: 100%

Question: What about the residual activity [43, 46] of the same compound?
Answer: 100%

Question: And the residual activity [44, 46]?
Answer: 100%

Question: What about the inhibition [45] of the same compound?
Answer: 21.1%

Question: For `C[C@@H](NC(=O)Nc1cc2[nH]ncc2c(CO)n1)c1ccccc1` [ERKi], which residual activity [1, 47] is on record?
Answer: 100%

Question: What about the residual activity [2, 47] of the same compound?
Answer: 72.1%

Question: What about the inhibition [3] of the same compound?
Answer: 7.44%

Question: What about the residual activity [4, 47] of the same compound?
Answer: 72.3%

Question: What about the residual activity [5, 47] of the same compound?
Answer: 87.3%

Question: What about the residual activity [6, 47] of the same compound?
Answer: 100%

Question: What about the residual activity [7, 47] of the same compound?
Answer: 100%

Question: What about the residual activity [8, 47] of the same compound?
Answer: 77.6%

Question: What about the residual activity [9, 47] of the same compound?
Answer: 79.1%

Question: What about the residual activity [10, 47] of the same compound?
Answer: 73.6%

Question: And the residual activity [11, 47]?
Answer: 92.8%

Question: What about the residual activity [12, 47] of the same compound?
Answer: 84.6%

Question: What about the residual activity [13, 47] of the same compound?
Answer: 76.9%

Question: What about the residual activity [14, 47] of the same compound?
Answer: 85.5%

Question: What about the residual activity [15, 47] of the same compound?
Answer: 100%

Question: And the residual activity [16, 47]?
Answer: 88.3%

Question: What about the residual activity [17, 47] of the same compound?
Answer: 100%

Question: And the residual activity [18, 47]?
Answer: 94.6%

Question: And the residual activity [19, 47]?
Answer: 85.7%

Question: And the residual activity [20, 47]?
Answer: 100%

Question: And the inhibition [21]?
Answer: 21.1%

Question: What about the residual activity [22, 47] of the same compound?
Answer: 100%

Question: What about the residual activity [23, 47] of the same compound?
Answer: 49%

Question: What about the residual activity [24, 47] of the same compound?
Answer: 92.5%

Question: And the residual activity [25, 47]?
Answer: 100%

Question: And the residual activity [26, 47]?
Answer: 82.7%

Question: And the residual activity [27, 47]?
Answer: 100%

Question: What about the residual activity [28, 47] of the same compound?
Answer: 98.1%

Question: And the residual activity [29, 47]?
Answer: 94.1%

Question: And the residual activity [30, 47]?
Answer: 82.7%

Question: What about the residual activity [31, 47] of the same compound?
Answer: 84.6%

Question: What about the residual activity [32, 47] of the same compound?
Answer: 86.5%

Question: What about the inhibition [33] of the same compound?
Answer: 16.1%

Question: And the residual activity [34, 47]?
Answer: 89.2%

Question: What about the residual activity [35, 47] of the same compound?
Answer: 45.7%

Question: And the residual activity [36, 47]?
Answer: 74.7%

Question: What about the residual activity [37, 47] of the same compound?
Answer: 91.2%

Question: And the residual activity [38, 47]?
Answer: 100%

Question: And the residual activity [39, 47]?
Answer: 88.7%

Question: And the residual activity [40, 47]?
Answer: 58.7%

Question: What about the residual activity [41, 47] of the same compound?
Answer: 82.1%

Question: And the residual activity [42, 47]?
Answer: 66.4%

Question: And the residual activity [43, 47]?
Answer: 91.1%

Question: And the residual activity [44, 47]?
Answer: 76%

Question: And the inhibition [45]?
Answer: 7.46%
